Where “and” joins values, the source holds several entries; their conditions need not be identical. Equal values may be shown once. Inconclusive results and toxic doses are left out.

The test system of the test is P388 leukemia ip, CD2F1 mice, survival T/C. Kind of test: NCI In Vivo Anticancer Drug Screen. Data for tumor model P388 Leukemia (intraperitoneal) in CD2F1 (CDF1) mice. The conditions noted are these: endpoint: median survival time, higher = longer survival. In a few lines:
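Mice carrying the transplanted tumor received test compound or vehicle. Survival was recorded in each group, and the value is the treated-group measurement divided by that of the vehicle-treated control group.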

Where [1] appears, read: dose: 50.0 mg/kg/injection, schedule: Q01DX009 (ip), vehicle: saline with Tween-80.
The mark [2] stands for this setting: dose: 100.0 mg/kg/injection, schedule: Q01DX009 (ip), vehicle: saline with Tween-80.
The mark [3] stands for this setting: dose: 200.0 mg/kg/injection, schedule: Q01DX009 (ip), vehicle: saline with Tween-80.
The mark [4] stands for this setting: dose: 12.5 mg/kg/injection, schedule: Q01DX009 (ip), vehicle: saline.
Setting [5] is: dose: 12.5 mg/kg/injection, schedule: Q04DX003 (ip), vehicle: saline.
Setting [6] is: dose: 25.0 mg/kg/injection, schedule: Q01DX009 (ip), vehicle: saline.
Setting [7] is: dose: 25.0 mg/kg/injection, schedule: Q04DX003 (ip), vehicle: saline.
The mark [8] stands for this setting: dose: 50.0 mg/kg/injection, schedule: Q01DX009 (ip), vehicle: saline.
[9] abbreviates: dose: 50.0 mg/kg/injection, schedule: Q01DX009 (ip), vehicle: Klucel (hydroxypropylcellulose) (HPC).
Where [10] appears, read: dose: 100.0 mg/kg/injection, schedule: Q01DX009 (ip), vehicle: Klucel (hydroxypropylcellulose) (HPC).
The mark [11] stands for this setting: dose: 200.0 mg/kg/injection, schedule: Q01DX009 (ip), vehicle: Klucel (hydroxypropylcellulose) (HPC).
[12] abbreviates: dose: 100.0 mg/kg/injection, schedule: Q01DX009 (ip), vehicle: saline.
Where [13] appears, read: dose: 240.0 mg/kg/injection, schedule: Q01DX005 (ip), vehicle: saline with Tween-80.
Setting [14] is: dose: 50.0 mg/kg/injection, schedule: Q01DX005 (ip), vehicle: Klucel (hydroxypropylcellulose) (HPC).
The mark [15] stands for this setting: dose: 100.0 mg/kg/injection, schedule: Q01DX005 (ip), vehicle: Klucel (hydroxypropylcellulose) (HPC).
Setting [16] is: dose: 50.0 mg/kg/injection, schedule: Q01DX005 (ip), vehicle: saline with Tween-80.
The mark [17] stands for this setting: dose: 100.0 mg/kg/injection, schedule: Q01DX005 (ip), vehicle: saline with Tween-80.

As to `COc1ccc(C(=O)/C=C/c2ccc(OC)c(OC)c2OC)c(OC(C)=O)c1`, the T/C runs as follows: (dose: 100.0 mg/kg/injection, schedule: Q04DX003 (ip), vehicle: Klucel (hydroxypropylcellulose) (HPC)) 98 % of control; (dose: 200.0 mg/kg/injection, schedule: Q04DX003 (ip), vehicle: Klucel (hydroxypropylcellulose) (HPC)) 91 % of control; (dose: 400.0 mg/kg/injection, schedule: Q04DX003 (ip), vehicle: Klucel (hydroxypropylcellulose) (HPC)) 93 % of control.
As to `COC(=O)Nc1nc2cc(Cl)c(Cl)cc2[nH]1`, the T/C runs as follows: (dose: 25.0 mg/kg/injection, schedule: Q01DX009 (ip), vehicle: saline with Tween-80) 103 % of control and 92 % of control; under setting [1], 105 % of control and 123 % of control and 124 % of control; under setting [2], 111 % of control; under setting [3], 114 % of control; (dose: 400.0 mg/kg/injection, schedule: Q01DX009 (ip), vehicle: saline with Tween-80) 112 % of control; (dose: 600.0 mg/kg/injection, schedule: Q01DX009 (ip), vehicle: saline with Tween-80) 119 % of control.
For `CCCC(C(=O)OCCN(CC)CC)(c1ccccc1)c1ccccc1`, the T/C reads like this: under setting [4], 108 % of control; under setting [5], 100 % of control; under setting [6], 100 % of control; under setting [7], 100 % of control; under setting [8], 91 % of control; (dose: 50.0 mg/kg/injection, schedule: Q04DX003 (ip), vehicle: saline) 100 % of control.
Consider `N#CC1c2ccccc2C=CN1C(=O)CCCl` (configuration not stated), for which the T/C is 106 % of control under setting [9], 108 % of control under setting [10] and 108 % of control under setting [11].
Regarding `O=C(Nc1ccc([N+](=O)[O-])cc1)C1C(=O)C(=O)N(c2ccc([N+](=O)[O-])cc2)C1=O` (configuration not stated), the T/C was 107 % of control under setting [9], 100 % of control under setting [10] and 104 % of control under setting [11].
In the case of `COC(=O)/C=C/c1ccccc1-c1ccccc1/C=C/C(=O)OC`, the T/C is 105 % of control (dose: 100.0 mg/kg/injection, schedule: Q04DX003 (ip), vehicle: saline); 102 % of control (dose: 200.0 mg/kg/injection, schedule: Q04DX003 (ip), vehicle: saline); 100 % of control (dose: 400.0 mg/kg/injection, schedule: Q04DX003 (ip), vehicle: saline).
Regarding `C#CC(C)(CC)OC(=O)c1ccccc1C(=O)O` (configuration not stated), the T/C by setting is: under setting [8], 100 % of control; under setting [12], 104 % of control; (dose: 200.0 mg/kg/injection, schedule: Q01DX009 (ip), vehicle: saline) 95 % of control.
As to `O=c1n[n+]([O-])ccn1C1OC(CO)C(O)C1O` (configuration not stated), the T/C by setting is: under setting [8], 119 % of control and 123 % of control; under setting [12], 106 % of control; (dose: 300.0 mg/kg/injection, schedule: Q01DX009 (ip), vehicle: saline) 169 % of control and 170 % of control; (dose: 450.0 mg/kg/injection, schedule: Q01DX009 (ip), vehicle: saline) 96 % of control.
In the case of `CCOC(=O)CC(COC)C(Br)(C(=O)OCC)C(=O)OCC` (configuration not stated), the T/C is, setting by setting: (dose: 1.56 mg/kg/injection, schedule: Q01DX009 (ip), vehicle: water) 104 % of control; (dose: 3.13 mg/kg/injection, schedule: Q01DX009 (ip), vehicle: water) 111 % of control; (dose: 6.25 mg/kg/injection, schedule: Q01DX009 (ip), vehicle: water) 107 % of control; (dose: 12.5 mg/kg/injection, schedule: Q01DX009 (ip), vehicle: water) 114 % of control; (dose: 25.0 mg/kg/injection, schedule: Q01DX009 (ip), vehicle: water) 113 % of control.
In the case of `C1O[C@@H]1[C@H]1CO1`, the T/C was 104 % of control (dose: 6.25 mg/kg/injection, schedule: Q01DX009 (ip), vehicle: saline); 120 % of control (dose: 6.25 mg/kg/injection, schedule: Q04DX003 (ip), vehicle: saline); 109 % of control under setting [4]; 120 % of control under setting [5]; 157 % of control under setting [6]; 100 % of control under setting [7].
In the case of `O=C(Nc1ccc(S(=O)(=O)Nc2nccs2)cc1)c1cccnc1Nc1cccc(Cl)c1`, the T/C (dose: 60.0 mg/kg/injection, schedule: Q01DX005 (ip), vehicle: saline with Tween-80) is 111 % of control; the T/C (dose: 120.0 mg/kg/injection, schedule: Q01DX005 (ip), vehicle: saline with Tween-80) was 113 % of control; the T/C under setting [13] is 106 % of control.
Turning to `CC1CC(=O)c2cc(-c3ccccc3)oc2C1` (configuration not stated), the T/C by setting is: under setting [9], 115 % of control; under setting [10], 102 % of control; under setting [11], 97 % of control.
As for `CSCSCC(N)CO` (configuration not stated), the T/C was 95 % of control (dose: 25.0 mg/kg/injection, schedule: Q01DX005 (ip), vehicle: water); 100 % of control (dose: 50.0 mg/kg/injection, schedule: Q01DX005 (ip), vehicle: water); 89 % of control (dose: 100.0 mg/kg/injection, schedule: Q01DX005 (ip), vehicle: water); 95 % of control (dose: 200.0 mg/kg/injection, schedule: Q01DX005 (ip), vehicle: water); 89 % of control (dose: 400.0 mg/kg/injection, schedule: Q01DX005 (ip), vehicle: water).
In the case of `COc1cccc(CN2CCN(N)CC2)c1`, the T/C is 100 % of control (dose: 12.5 mg/kg/injection, schedule: Q01DX005 (ip), vehicle: Klucel (hydroxypropylcellulose) (HPC)); 104 % of control (dose: 25.0 mg/kg/injection, schedule: Q01DX005 (ip), vehicle: Klucel (hydroxypropylcellulose) (HPC)); 107 % of control under setting [14]; 100 % of control under setting [15].
Turning to `C#CCn1cnc2c(N)ncnc21`, the T/C by setting is: under setting [14], 97 % of control; under setting [15], 93 % of control.
For `CC(O)(CSc1ccccc1)CSc1ccccc1` (tested in a mixture with another compound), the T/C by setting is: (dose: 25.0 mg/kg/injection, schedule: Q01DX005 (ip), vehicle: saline with Tween-80) 102 % of control; under setting [16], 100 % of control; under setting [17], 98 % of control; (dose: 200.0 mg/kg/injection, schedule: Q01DX005 (ip), vehicle: saline with Tween-80) 100 % of control.
With `CC(C)SC(=S)Nc1ccc(F)cc1`, the T/C reads like this: (dose: 50.0 mg/kg/injection, schedule: Q01DX009 (ip), vehicle: suspension in saline) 101 % of control; (dose: 100.0 mg/kg/injection, schedule: Q01DX009 (ip), vehicle: suspension in saline) 101 % of control; (dose: 200.0 mg/kg/injection, schedule: Q01DX009 (ip), vehicle: suspension in saline) 107 % of control.
On to `CCCCOCCOS(=O)(=O)c1ccc(C)cc1`, for which the T/C under setting [1] is 92 % of control, the T/C under setting [2] was 96 % of control and the T/C under setting [3] is 106 % of control.
For the compound `CNC(=O)OCc1c(COC(=O)NC)c2n(c1C)-c1ccc(OC)cc1CCC2`, the T/C is, setting by setting: (dose: 7.5 mg/kg/injection, schedule: Q01DX005 (ip), vehicle: Klucel (hydroxypropylcellulose) (HPC)) 119 % of control; (dose: 15.0 mg/kg/injection, schedule: Q01DX005 (ip), vehicle: Klucel (hydroxypropylcellulose) (HPC)) 122 % of control.
`O=C(CC(=O)N1N=C(N(c2ccccc2)c2ccccc2)CC1c1ccccc1)Nc1ccccc1Cl` (configuration not stated): the T/C under setting [16] is 99 % of control, the T/C under setting [17] is 99 % of control and the T/C under setting [13] is 90 % of control.
Regarding `COC(=O)C/C(C(=O)OC)=C1\CCC2=C1N1CCCC1C2(CC(=O)OC)C(=O)OC` (configuration not stated), the T/C runs as follows: (dose: 12.5 mg/kg/injection, schedule: Q01DX001 (ip), vehicle: Klucel (hydroxypropylcellulose) (HPC)) 100 % of control; (dose: 25.0 mg/kg/injection, schedule: Q01DX001 (ip), vehicle: Klucel (hydroxypropylcellulose) (HPC)) 99 % of control; (dose: 50.0 mg/kg/injection, schedule: Q01DX001 (ip), vehicle: Klucel (hydroxypropylcellulose) (HPC)) 99 % of control.

(Values after PubChem BioAssay AID330 (DTP/NCI, 2004).)
